# Results from patent US9156796B2, “Benzoimidazole-carboxylic acid amide derivatives as APJ receptor modulators” (SANOFI, priority 2013, dated 2015).
# Molecular target: T1, human apelin receptor (Homo sapiens, UniProt P35414)
# T1 construct: expressed in transfected cells
# T1 sequence (P35414 1-380): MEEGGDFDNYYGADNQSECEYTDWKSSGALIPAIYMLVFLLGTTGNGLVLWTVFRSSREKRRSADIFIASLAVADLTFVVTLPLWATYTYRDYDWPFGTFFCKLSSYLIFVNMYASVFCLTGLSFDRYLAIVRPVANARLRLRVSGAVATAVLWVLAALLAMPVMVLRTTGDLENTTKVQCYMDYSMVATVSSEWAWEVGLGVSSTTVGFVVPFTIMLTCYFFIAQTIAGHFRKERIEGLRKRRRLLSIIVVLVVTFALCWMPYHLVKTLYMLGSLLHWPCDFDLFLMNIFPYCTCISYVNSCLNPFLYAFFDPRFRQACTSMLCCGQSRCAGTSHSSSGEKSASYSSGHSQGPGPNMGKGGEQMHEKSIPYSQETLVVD
# Assay: Determination of agonism on the human apelin receptor by a calcium fluorescence assay (FLIPR)
# Format: cell-based
# Settings: HEK293 cells stably transfected with human apelin receptor and Giaq protein, Fluo-4 calcium fluorescence, read-out: EC50 (APJ agonism)
# From the text: Determination of Agonism on the Human Apelin Receptor by a Calcium Fluorescence Assay (FLIPR)
# The assay is based on the detection of intracellular calcium changes detected by the selective, calcium-chelating dye Fluo-4 (Molecular Probes). A large fluorescence intensity increase is observed upon calcium association with Fluo-4. The dye is delivered to the cell interior using an acetoxymethylester form of Fluo-4, where the intracellular esterase activity results in the charged species being released and trapped within the cytoplasm of the cell. […] By co-expressing the human apelin receptor and a promiscuous Giaq protein, agonism of the apelin receptor couples to phospholipase-C resulting in intracellular calcium mobilization.
# The HEK293 cells were stably transfected with the human apelin receptor and the Giaq protein. Cells were selected and maintained in a log phase of growth at 37° and 5% CO2 in the Iscove's minimal essential medium, 10% fetal calf serum, 1× Penicillin-Streptomycin, 400 μg/mL G418. One day prior the assay, cells were passaged by accutase and plated at a density of 50,000 cells/well onto a 96-well plates with black border but clear bottom (Costar, cat#3904) in a final volume of 200 μl growth medium.
# In order to load the cells the next day with the calcium-sensitive dye, growth medium was carefully replaced by dye solution (100 μl/well) containing Fluo-4 (4 μM) in basic measurement buffer (135 mM NaCl, 5 mM KCl, 1 mM magnesium sulphate, 5 mM glucose, 20 mM Hepes, 2.5 mM probenecid; adjusted to pH 7.4). Cells were incubated for 1 h at 37° C., and then washed 3× with buffer containing no dye. The washer was programmed to leave a remaining volume of 150 μl after the third wash in the plate.
# During the dye-loading of the cells, a serial compound dilution was performed in a separate 96-well plate with overall 4× increased concentrations. Small aliquots of DMSO stock solutions of the compounds (10 mM in 100% DMSO were aliquoted into 150 μl buffer in the first rows of the 96-well plates, and then serially diluted by a factor of 1:3 transferring each time 30 μl to the next rows already containing 60 μl buffer. All compounds were tested in a least 7 concentrations, each condition was performed in triplicates. As comparator, we used freshly prepared apelin-13 solutions, for which also a concentration-response curve was determined at each measurement day. The compound plate was incubated for 10 min after the final dilutions steps at 37° C. before transferring the dye-loaded cell plate and the compound plate into a FLIPR Tetra reader (Molecular Devices). Measurement within this reader started by pipetting the agonist solution (50 μl) on the cell plate. Overall perform 60 reads were performed with an interval of 2 sec. The maximum of the fluorescence transient was used to calculate the agonistic response of the cells. In order to normalize this response, which may vary from plate to plate we set the maximum fluorescence achieved by 1 μM apelin-13 on this plate as 100%.
# EC-50 values for apelin-13 and the apelin receptor compounds described in this patent were determined by standard algorithms using a specific software package.
row,Compound,EC50 [nM]
1,"CC(C)C[C@H](NC(=O)c1ccc2c(c1)nc(Cc1ccco1)n2C1CCCCC1C)C(=O)O (single isomer, unassigned) [Example 416]",25
2,"CC(C)C[C@H](NC(=O)c1ccc2c(c1)nc(Cc1ccco1)n2C1CCCCC1C)C(=O)O (single isomer, unassigned) [Example 419]",313
3,"CCCC[C@H](NC(=O)c1ccc2c(c1)nc(Cc1cccs1)n2C1CCCCC1C)C(=O)O (single isomer, unassigned) [Example 420]",14
4,"CCCC[C@H](NC(=O)c1ccc2c(c1)nc(Cc1cccs1)n2C1CCCCC1C)C(=O)O (single isomer, unassigned) [Example 421]",20000
5,"CCCC[C@H](NC(=O)c1ccc2c(c1)nc(Cc1cccs1)n2C1CCCCC1C)C(=O)O (single isomer, unassigned) [Example 422]",1860
6,"CC1CCCCC1n1c(Cc2cccs2)nc2cc(C(=O)N[C@@H](CC3CCCCC3)C(=O)O)ccc21 (single isomer, unassigned) [Example 425]",2680
7,"CC(C)C[C@H](NC(=O)c1ccc2c(c1)nc(Cc1cccs1)n2C1CCCC1C)C(=O)O (single isomer, unassigned) [Example 428]",266
8,"CC(C)C[C@H](NC(=O)c1ccc2c(c1)nc(Cc1cccs1)n2C1CCCC1C)C(=O)O (single isomer, unassigned) [Example 429]",891
9,"CC(C)C[C@H](NC(=O)c1ccc2c(c1)nc(Cc1cccs1)n2C1CCCC1C)C(=O)O (single isomer, unassigned) [Example 430]",1310
10,"CC(C)C[C@@H](CC(=O)O)NC(=O)c1ccc2c(c1)nc(Cc1ccco1)n2C1CCCCC1C (single isomer, unassigned) [Example 432]",32
11,"CC(C)C[C@@H](CC(=O)O)NC(=O)c1ccc2c(c1)nc(Cc1ccco1)n2C1CCCCC1C (single isomer, unassigned) [Example 433]",1720
12,"CC(C)C[C@@H](CC(=O)O)NC(=O)c1ccc2c(c1)nc(Cc1ccco1)n2C1CCCCC1C (single isomer, unassigned) [Example 434]",425
13,"CC(C)C[C@@H](CC(=O)O)NC(=O)c1ccc2c(c1)nc(Cc1cccs1)n2C1CCCCC1C (single isomer, unassigned) [Example 436]",24
14,"CC(C)C[C@@H](CC(=O)O)NC(=O)c1ccc2c(c1)nc(Cc1cccs1)n2C1CCCCC1C (single isomer, unassigned) [Example 437]",4910
15,"CC(C)C[C@@H](CC(=O)O)NC(=O)c1ccc2c(c1)nc(Cc1cccs1)n2C1CCCCC1C (single isomer, unassigned) [Example 438]",661
16,"CCC(CC)n1c(Cc2cccs2)nc2cc(C(=O)NC(C)(CC(C)C)C(=O)O)ccc21 (single isomer, unassigned) [Example 440]",6590
17,"CCC(CC)n1c(Cc2cccs2)nc2cc(C(=O)NC(C)(CC(C)C)C(=O)O)ccc21 (single isomer, unassigned) [Example 441]",1520
18,"C[C@@H]1CCCC[C@H]1n1c(Cc2cccs2)nc2cc(C(=O)NC(CC3CCCC3)C(=O)O)ccc21 (single isomer, unassigned) [Example 443]",1450
19,"CCC(CC)n1c(Cc2cccs2)nc2cc(C(=O)NC(CC3CCC(C)(C)CC3)C(=O)O)ccc21 (single isomer, unassigned) [Example 445]",8810
20,"C[C@@H]1CCCC[C@H]1n1c(Cc2cccs2)nc2cc(C(=O)NC(CC3CCC(C)(C)CC3)C(=O)O)ccc21 (single isomer, unassigned) [Example 446]",2140
21,"CCC(CC)n1c(Cc2cccs2)nc2cc(C(=O)NC(CC3CCCCCC3)C(=O)O)ccc21 (single isomer, unassigned) [Example 448]",706
22,"CCC(CC)n1c(Cc2cccs2)nc2cc(C(=O)NC(CC3CCCCCC3)C(=O)O)ccc21 (single isomer, unassigned) [Example 449]",853
23,"CCCCC(CC(=O)O)NC(=O)c1ccc2c(c1)nc(Cc1cccs1)n2C(CC)CC (single isomer, unassigned) [Example 452]",49
24,"CCCCC(CC(=O)O)NC(=O)c1ccc2c(c1)nc(Cc1cccs1)n2C(CC)CC (single isomer, unassigned) [Example 453]",781
25,"CCC(CC)n1c(Cc2cccs2)nc2cc(C(=O)NC(CC(=O)O)CC3CCCCC3)ccc21 (single isomer, unassigned) [Example 454]",126

# Continued by falling EC50, values first:
row,EC50 [nM],Compound
1,9730,"CCCC[C@H](NC(=O)c1ccc2c(c1)nc(Cc1cccs1)n2C1CCCCC1C)C(=O)O (single isomer, unassigned) [Example 423]"
2,3910,"CCC(CC)n1c(Cc2cccs2)nc2cc(C(=O)NC(CC3CCC(C)(C)CC3)C(=O)O)ccc21 (single isomer, unassigned) [Example 444]"
3,3470,"CC(C)C[C@H](NC(=O)c1ccc2c(c1)nc(Cc1cccs1)n2C1CCCC1C)C(=O)O (single isomer, unassigned) [Example 431]"
4,1630,"CC1CCCCC1n1c(Cc2cccs2)nc2cc(C(=O)N[C@@H](CC3CCCCC3)C(=O)O)ccc21 (single isomer, unassigned) [Example 426]"
5,1320,"CC1CCCCC1n1c(Cc2cccs2)nc2cc(C(=O)N[C@@H](CC3CCCCC3)C(=O)O)ccc21 (single isomer, unassigned) [Example 427]"
6,1230,"C[C@@H]1CCCC[C@H]1n1c(Cc2cccs2)nc2cc(C(=O)NC(CC3CCCCCC3)C(=O)O)ccc21 (single isomer, unassigned) [Example 451]"
7,1020,"CC(C)C[C@H](NC(=O)c1ccc2c(c1)nc(Cc1cccs1)n2C1CCCCC1C)C(=O)O (single isomer, unassigned) [Example 413]"
8,720,"C[C@@H]1CCCC[C@H]1n1c(Cc2cccs2)nc2cc(C(=O)NC(CC3CCCCCC3)C(=O)O)ccc21 (single isomer, unassigned) [Example 450]"
9,715,"CC(C)C[C@H](NC(=O)c1ccc2c(c1)nc(Cc1ccco1)n2C1CCCCC1C)C(=O)O (single isomer, unassigned) [Example 417]"
10,664,"CC(C)C[C@H](NC(=O)c1ccc2c(c1)nc(Cc1cccs1)n2C1CCCCC1C)C(=O)O (single isomer, unassigned) [Example 414]"
11,662,"CC(C)C[C@@H](CC(=O)O)NC(=O)c1ccc2c(c1)nc(Cc1cccs1)n2C1CCCCC1C (single isomer, unassigned) [Example 439]"
12,532,"CC(C)C[C@H](NC(=O)c1ccc2c(c1)nc(Cc1cccs1)n2C1CCCCC1C)C(=O)O (single isomer, unassigned) [Example 415]"
13,389,"CC1CCCCC1n1c(Cc2cccs2)nc2cc(C(=O)N[C@@H](CC3CCCCC3)C(=O)O)ccc21 (single isomer, unassigned) [Example 424]"
14,248,"CC(C)C[C@H](NC(=O)c1ccc2c(c1)nc(Cc1ccco1)n2C1CCCCC1C)C(=O)O (single isomer, unassigned) [Example 418]"
15,226,"CC(C)C[C@@H](CC(=O)O)NC(=O)c1ccc2c(c1)nc(Cc1ccco1)n2C1CCCCC1C (single isomer, unassigned) [Example 435]"
16,160,"CCC(CC)n1c(Cc2cccs2)nc2cc(C(=O)NC(CC(=O)O)CC3CCCCC3)ccc21 (single isomer, unassigned) [Example 455]"
17,134,"C[C@@H]1CCCC[C@H]1n1c(Cc2cccs2)nc2cc(C(=O)NC(CC3CCCC3)C(=O)O)ccc21 (single isomer, unassigned) [Example 442]"
18,106,"CC(C)C[C@H](NC(=O)c1ccc2c(c1)nc(Cc1cccs1)n2C1CCCCC1C)C(=O)O (single isomer, unassigned) [Example 412]"
